Reference: US6710081B1, “Erection insufficiency remedies” (priority 1999, dated 2004)

Legend:
[1] = system: corpus cavernosum penis; test: Intracavernosal pressure increasing activity; assay type: in vivo, beagle; conditions: for Intracavernosal pressure increase: anesthetized beagle, intracavernosal injection, maximum up to 4 minutes from administration
Text: Under anesthesia with thiopental, cannulae were indwelled in left cephalic vein (for infusion) and left femoral artery (for measuring blood pressure and heart rate) of a beagle. The epidermis was dissected from the top of penis to scrotum with an electrocautery to expose the albuguinea on the surface of the cavernous body. A cannula with a needle for measuring the inner pressure and administering a chemical was inserted into the cavernous body and (11α,15α,13E)-9-oxo-11,15-dihydroxy-16-(3-methoxy-methylphenyl)-17,18,19,20-tetranor-5-thiaprost-13-enoic acid methyl ester (methyl ester of the compound of formula (I-1) above, hereinafter abbreviated as methyl ester form) was administered in four kinds of dosage, i.e., 0.2, 2.0, 20, and 200 ng. As controls, 20 ng of PGE1 and physiological saline were used.
Through the cannula inserted into the corpus cavernosum penis, the chemical was injected in amounts of 100 μl and was followed by 300 μl saline injection. A difference between the maximum intra pressures up to 4 minutes from the administration and the intra pressure at the time of administration was taken as the value of intracavernosal pressure increase.

[2] = system: rat; conditions: in vivo, iv
Experimental: It has been confirmed that the compounds of the present invention of formula (I) have sufficiently low toxicity and are sufficiently safe for use as pharmaceutical preparations. For example, the maximal tolerated dose of methyl ester of the compound of formula (I-1) was 30 mg/kg weight or more for rat intravenous administration.

Compound	Intracavernosal pressure increase ([1]; dose 0.2 ng/100 μl)	Intracavernosal pressure increase ([1]; dose 2.0 ng/100 μl)	Intracavernosal pressure increase ([1]; dose 20 ng/100 μl)	Intracavernosal pressure increase ([1]; dose 200 ng/100 μl)	Effect on intracavernosal pressure (in words) ([1]; beagle, 0.2 to 200 ng intracavernosal)	maximal tolerated dose [2]
COCc1cccc(C[C@H](O)/C=C/[C@H]2[C@H](O)CC(=O)[C@@H]2CCSCCCC(=O)OC)c1 [Methyl ester form, (11α,15α,13E)-9-oxo-11,15-dihydroxy-16-(3-methoxy-methylphenyl)-17,18,19,20-tetranor-5-thiaprost-13-enoic acid methyl ester]	4.3 ± 1.9 mmHg	12.7 ± 8.7 mmHg	28.3 ± 12.3 mmHg	40.7 ± 16.6 mmHg	increased the intracavernosal pressure dose-dependently	≥ 30 mg/kg weight
CCCCC[C@H](O)/C=C/[C@H]1[C@H](O)CC(=O)[C@@H]1CCCCCCC(=O)O [PGE1, prostaglandin E1, reference compound]	–	–	29.0 ± 12.5 mmHg	–	–	–
